Experiments:
[1] = biological target: T1, 3-oxo-5-alpha-steroid 4-dehydrogenase 1 (Homo sapiens, UniProt P18405); test: In vitro inhibition of recombinant human Steroid 5-alpha-reductase type I; conditions: read-out: Ki app
T1 sequence (P18405 whole entry): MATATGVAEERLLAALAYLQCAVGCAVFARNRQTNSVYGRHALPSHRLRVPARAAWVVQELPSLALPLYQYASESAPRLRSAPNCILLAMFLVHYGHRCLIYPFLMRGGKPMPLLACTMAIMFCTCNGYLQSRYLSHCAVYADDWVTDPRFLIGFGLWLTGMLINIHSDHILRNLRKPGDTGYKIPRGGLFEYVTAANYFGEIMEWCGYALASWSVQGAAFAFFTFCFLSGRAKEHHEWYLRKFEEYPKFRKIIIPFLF

[2] = biological target: T2, 3-oxo-5-alpha-steroid 4-dehydrogenase 2 (Homo sapiens, UniProt P31213); test: In vitro inhibition of recombinant human Steroid 5-alpha-reductase type 2; conditions: read-out: Ki app
T2 sequence (P31213 whole entry): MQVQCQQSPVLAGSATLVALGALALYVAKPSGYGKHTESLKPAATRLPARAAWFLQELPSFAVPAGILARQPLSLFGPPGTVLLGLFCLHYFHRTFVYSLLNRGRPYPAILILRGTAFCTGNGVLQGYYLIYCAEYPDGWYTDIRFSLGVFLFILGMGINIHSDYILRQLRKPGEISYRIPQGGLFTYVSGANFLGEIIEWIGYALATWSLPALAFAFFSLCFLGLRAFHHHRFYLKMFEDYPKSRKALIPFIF

[3] = biological target: T2, 3-oxo-5-alpha-steroid 4-dehydrogenase 2; test: In vitro inhibition of recombinant human Steroid 5-alpha-reductase type 2; No inhibition

Structure (SMILES) | Ki [1] | Ki [2] | Ki app [3]
CN1C(=O)CC[C@]2(C)c3ccc(Cl)cc3CC[C@H]12 (stereo in doubt; (-)-4) | 7000 nM | > 2500 nM | 
CN1C(=O)CCC2=C1CCc1cc(Cl)ccc12 | 17 nM | 455 nM | 
CN1C(=O)CC[C@]2(C)c3ccc(Cl)cc3CC[C@@H]12 (stereo in doubt; (-)) | 10 nM | > 1000 nM | 
CN1C(=O)CC[C@@H]2c3ccc(Cl)cc3CC[C@H]21 (stereo in doubt; (-)) [BEXLOSTERIDE] | 4 nM | 1200 nM | 
CN1C(=O)CC[C@@]2(C)C1=CCc1cc(Cl)ccc12 (racemic) | 180 nM |  | Not Active
CN1C(=O)CC[C@]2(C)c3ccc(Cl)cc3CC[C@@H]12 (stereo in doubt; (+)) | 9 nM | > 1000 nM | 
CN1C(=O)CC[C@]2(C)c3ccc(Cl)cc3CC[C@H]12 (stereo in doubt; (+)-4) | 4000 nM | > 2500 nM | 

Now from value to compound:

Ki [1] | Ki [2] | Ki app [3] | Structure (SMILES)
15 nM | 5400 nM |  | CN1C(=O)CC[C@@H]2c3ccc(Cl)cc3CC[C@@H]21 (stereo in doubt; (-)-3)
6 nM | 1000 nM |  | CN1C(=O)CC[C@@H]2c3ccc(Cl)cc3CC[C@H]21 (stereo in doubt; (+)) [BEXLOSTERIDE]
15 nM | 1000 nM |  | CN1C(=O)CC[C@@H]2c3ccc(Cl)cc3CC[C@@H]21 (stereo in doubt; (+)-3)

From ChEMBL document CHEMBL1127900, “Preparative chiral HPLC separation of all possible stereoisomers of LY191704 and LY266111 and their in vitro inhibition of human types 1 and 2 steroid 5-reductases” (Bioorg Med Chem Lett, 1994)
